Experimental data: publication PMC5218480 (PLoS ONE, 2017)

System: MV-4-11 cells
Experiment: Gene expression microarray analysis (Affymetrix PrimeView) and GSEA
Format: cell-based, human
Design: RFU PODN (11730768_x_at) / Fold change /veh PODN (11730768_x_at) / RFU LINC00158 (11744669_a_at) / Fold change /veh LINC00158 (11744669_a_at) / RFU DUSP10 (11751237_a_at) / Fold change /veh DUSP10 (11751237_a_at) / RFU ID3 (11757404_x_at) / Fold change /veh ID3 (11757404_x_at) / RFU PLEKHG5 (11737974_s_at) / Fold change /veh PLEKHG5 (11737974_s_at) / RFU LRRC4B (11730491_at) / Fold change /veh LRRC4B (11730491_at) / RFU GIMAP4 (11747438_a_at) / Fold change /veh GIMAP4 (11747438_a_at) / RFU KRT8 (11758183_x_at) / Fold change /veh KRT8 (11758183_x_at) / RFU CNN1 (11734310_a_at) / Fold change /veh CNN1 (11734310_a_at) / RFU VPS37D (11726825_at) / Fold change /veh VPS37D (11726825_at) / RFU C10orf10 (11716522_x_at) / Fold change /veh C10orf10 (11716522_x_at) / RFU KIR2DL2 /// KIR2DL4 /// KIR2DL5A /// KIR2DL5B /// KIR2DS1 /// KIR2DS2 /// KIR2DS3 /// KIR2DS4 /// KIR3DL3 /// KIR3DL3 /// KIR3DS1 (11738374_at) / Fold change /veh KIR2DL2 /// KIR2DL4 /// KIR2DL5A /// KIR2DL5B /// KIR2DS1 /// KIR2DS2 /// KIR2DS3 /// KIR2DS4 /// KIR3DL3 /// KIR3DL3 /// KIR3DS1 (11738374_at) / RFU C1QL1 (11718748_at) / Fold change /veh C1QL1 (11718748_at) / RFU TMPRSS4 (11747572_a_at) / Fold change /veh TMPRSS4 (11747572_a_at) / RFU HAMP (11756126_x_at) / Fold change /veh HAMP (11756126_x_at) / RFU RNFT2 (11725882_a_at) / Fold change /veh RNFT2 (11725882_a_at) / RFU NR4A2 (11747474_a_at) / Fold change /veh NR4A2 (11747474_a_at) / RFU ABCC12 (11746883_a_at) / Fold change /veh ABCC12 (11746883_a_at) / RFU TMEM136 (11760407_x_at) / Fold change /veh TMEM136 (11760407_x_at) / RFU CLDN22 /// WWC2 (11732394_at) / Fold change /veh CLDN22 /// WWC2 (11732394_at) / RFU HLA-DPB1 (11760878_x_at) / Fold change /veh HLA-DPB1 (11760878_x_at) / RFU SPINT1 (11716480_a_at) / Fold change /veh SPINT1 (11716480_a_at) / RFU GAP43 (11754022_s_at) / Fold change /veh GAP43 (11754022_s_at) / RFU A4GNT (11735810_at) / Fold change /veh A4GNT (11735810_at) / RFU PRB3 (11715151_x_at) / Fold change /veh PRB3 (11715151_x_at) / RFU TUBB4B (11761932_at) / Fold change /veh TUBB4B (11761932_at) / RFU CAPN14 (11732068_a_at) / Fold change /veh CAPN14 (11732068_a_at) / RFU TMCC2 (11721928_a_at) / Fold change /veh TMCC2 (11721928_a_at) / RFU IRGQ (11745062_a_at) / Fold change /veh IRGQ (11745062_a_at) / RFU FAM174B (11720279_a_at) / Fold change /veh FAM174B (11720279_a_at) / RFU TMPRSS4 (11748680_a_at) / Fold change /veh TMPRSS4 (11748680_a_at) / RFU FAM212B (11763350_a_at) / Fold change /veh FAM212B (11763350_a_at) / RFU PLEKHG5 (11743358_a_at) / Fold change /veh PLEKHG5 (11743358_a_at) / RFU ZSCAN30 (11745921_a_at) / Fold change /veh ZSCAN30 (11745921_a_at) / RFU CMKLR1 (11741424_a_at) / Fold change /veh CMKLR1 (11741424_a_at) / RFU LOC101060620 /// MAPK8IP1 (11723275_at) / Fold change /veh LOC101060620 /// MAPK8IP1 (11723275_at) / RFU SPTSSB (11747773_x_at) / Fold change /veh SPTSSB (11747773_x_at) / RFU PRSS12 (11739890_at) / Fold change /veh PRSS12 (11739890_at) / RFU BIN1 (11741810_x_at) / Fold change /veh BIN1 (11741810_x_at) / RFU WNT11 (11732464_a_at) / Fold change /veh WNT11 (11732464_a_at) / RFU C10orf10 (11716521_a_at) / Fold change /veh C10orf10 (11716521_a_at) / RFU C5orf56 (11738089_at) / Fold change /veh C5orf56 (11738089_at) / RFU CYB561 (11721691_x_at) / Fold change /veh CYB561 (11721691_x_at) / RFU ANKRD19P (11752326_a_at) / Fold change /veh ANKRD19P (11752326_a_at) / RFU OR2T12 /// OR2T33 /// OR2T8 (11738714_s_at) / Fold change /veh OR2T12 /// OR2T33 /// OR2T8 (11738714_s_at) / RFU VCAN (11748164_a_at) / Fold change /veh VCAN (11748164_a_at) / RFU JSRP1 (11732532_at) / Fold change /veh JSRP1 (11732532_at) / RFU KRTAP10-11 (11738290_x_at) / Fold change /veh KRTAP10-11 (11738290_x_at) / RFU MYO3A (11730013_a_at) / Fold change /veh MYO3A (11730013_a_at) / RFU EBF3 (11725865_a_at) / Fold change /veh EBF3 (11725865_a_at) / RFU CAMK2N1 (11719241_x_at) / Fold change /veh CAMK2N1 (11719241_x_at) / RFU C5orf56 (11738088_a_at) / Fold change /veh C5orf56 (11738088_a_at) / RFU OLFML3 (11715873_a_at) / Fold change /veh OLFML3 (11715873_a_at) / RFU LOC100653217 /// NTM (11731650_a_at) / Fold change /veh LOC100653217 /// NTM (11731650_a_at) / RFU MAPK11 (11762145_a_at) / Fold change /veh MAPK11 (11762145_a_at) / RFU FIZ1 (11724087_x_at) / Fold change /veh FIZ1 (11724087_x_at) / RFU OASL (11726364_x_at) / Fold change /veh OASL (11726364_x_at) / RFU SOX15 (11748057_x_at) / Fold change /veh SOX15 (11748057_x_at) / RFU CD79A (11719716_a_at) / Fold change /veh CD79A (11719716_a_at) / RFU HIST1H1D (11736915_at) / Fold change /veh HIST1H1D (11736915_at) / RFU CASKIN2 (11723855_a_at) / Fold change /veh CASKIN2 (11723855_a_at) / RFU LOC730098 (11760151_x_at) / Fold change /veh LOC730098 (11760151_x_at) / RFU OR4N2 (11742367_at) / Fold change /veh OR4N2 (11742367_at) / RFU PRRT2 (11749266_a_at) / Fold change /veh PRRT2 (11749266_a_at) / RFU SNX32 (11753110_a_at) / Fold change /veh SNX32 (11753110_a_at) / RFU CDHR5 (11726645_a_at) / Fold change /veh CDHR5 (11726645_a_at) / RFU RCAN1 (11760418_a_at) / Fold change /veh RCAN1 (11760418_a_at) / RFU FAM167A (11723789_a_at) / Fold change /veh FAM167A (11723789_a_at) / RFU FAM26E (11764081_at) / Fold change /veh FAM26E (11764081_at) / RFU ISYNA1 (11749810_s_at) / Fold change /veh ISYNA1 (11749810_s_at) / RFU ACY1 (11761880_at) / Fold change /veh ACY1 (11761880_at) / RFU 11764098_at / Fold change /veh 11764098_at / RFU SAMD14 (11745864_x_at) / Fold change /veh SAMD14 (11745864_x_at) / RFU NPB (11741838_a_at) / Fold change /veh NPB (11741838_a_at) / RFU TMPRSS6 (11731388_a_at) / Fold change /veh TMPRSS6 (11731388_a_at) / RFU KRTAP10-2 (11738614_at) / Fold change /veh KRTAP10-2 (11738614_at) / RFU ARHGAP8 /// PRR5-ARHGAP8 (11727945_x_at) / Fold change /veh ARHGAP8 /// PRR5-ARHGAP8 (11727945_x_at) / RFU KRTAP5-7 /// NADSYN1 (11734609_at) / Fold change /veh KRTAP5-7 /// NADSYN1 (11734609_at) / RFU RASL12 (11751679_a_at) / Fold change /veh RASL12 (11751679_a_at) / RFU CDKN2B (11736163_a_at) / Fold change /veh CDKN2B (11736163_a_at) / RFU PRF1 (11729649_at) / Fold change /veh PRF1 (11729649_at) / RFU, ZNF638 /// ZNF638-IT1 / Fold change vs veh, ZNF638 /// ZNF638-IT1 / RFU, PANK3 / Fold change vs veh, PANK3 / RFU, SH3YL1 / Fold change vs veh, SH3YL1 / RFU, ZEB2 / Fold change vs veh, ZEB2 / RFU, NRIP1 / Fold change vs veh, NRIP1 / RFU, PTTG1IP / Fold change vs veh, PTTG1IP / RFU, CAPN2 / Fold change vs veh, CAPN2 / RFU, MED14 / Fold change vs veh, MED14 / RFU, SNORA58 / Fold change vs veh, SNORA58 / RFU, C1orf63 / Fold change vs veh, C1orf63 / RFU, LRRFIP1 / Fold change vs veh, LRRFIP1 / RFU, NDUFAF7 / Fold change vs veh, NDUFAF7 / RFU, SLC12A2 / Fold change vs veh, SLC12A2 / RFU, IBTK / Fold change vs veh, IBTK / RFU, ESF1 / Fold change vs veh, ESF1 / Fold change vs veh, TMEM50B / RFU, TAOK1 / Fold change vs veh, TAOK1 / RFU, ACBD3 / Fold change vs veh, ACBD3 / RFU, TMA16 / Fold change vs veh, TMA16 / RFU, RWDD3 / Fold change vs veh, RWDD3 / RFU, BCAT1 / Fold change vs veh, BCAT1 / RFU, EDEM3 / Fold change vs veh, EDEM3 / RFU, TMEM33 / Fold change vs veh, TMEM33 / RFU, WDR75 / Fold change vs veh, WDR75 / RFU, AHCTF1 / Fold change vs veh, AHCTF1 / RFU, TFRC / Fold change vs veh, TFRC / RFU, ZDHHC17 / Fold change vs veh, ZDHHC17 / RFU, NOM1 / Fold change vs veh, NOM1 / RFU, ARL8B / Fold change vs veh, ARL8B / RFU, ZBTB11 / Fold change vs veh, ZBTB11 / RFU, TAMM41 / Fold change vs veh, TAMM41 / RFU, KIAA1704 /// LOC100996395 / Fold change vs veh, KIAA1704 /// LOC100996395 / RFU, ING1 / Fold change vs veh, ING1 / RFU, TRMT61B / Fold change vs veh, TRMT61B / RFU, FUBP3 / Fold change vs veh, FUBP3 / RFU, TP53 / Fold change vs veh, TP53 / RFU, TNKS2 / Fold change vs veh, TNKS2 / RFU, ZFP14 / Fold change vs veh, ZFP14 / RFU, ACTR2 / Fold change vs veh, ACTR2 / RFU, PPP3R1 / Fold change vs veh, PPP3R1 / RFU, PIK3R1 / Fold change vs veh, PIK3R1 / RFU, HNRNPA1 / Fold change vs veh, HNRNPA1 / RFU, RNF170 / Fold change vs veh, RNF170 / RFU, ZNF28 / Fold change vs veh, ZNF28 / RFU, RNGTT / Fold change vs veh, RNGTT / RFU, OGT / Fold change vs veh, OGT / RFU, BRD1 / Fold change vs veh, BRD1 / RFU, MARS / Fold change vs veh, MARS / RFU, ZNF655 / Fold change vs veh, ZNF655 / RFU, FAHD1 / Fold change vs veh, FAHD1 / RFU, BDP1 / Fold change vs veh, BDP1 / RFU, LRRCC1 / Fold change vs veh, LRRCC1 / RFU, ARID1A / Fold change vs veh, ARID1A / RFU, ZNF146 / Fold change vs veh, ZNF146 / RFU, ZNF330 / Fold change vs veh, ZNF330 / RFU, GPN3 / Fold change vs veh, GPN3 / RFU, C9orf123 / Fold change vs veh, C9orf123 / RFU, N4BP2L2 / Fold change vs veh, N4BP2L2 / RFU, ARFIP1 / Fold change vs veh, ARFIP1 / RFU, FAM179B / Fold change vs veh, FAM179B / RFU, BCL10 / Fold change vs veh, BCL10 / RFU, UHRF1BP1L / Fold change vs veh, UHRF1BP1L / RFU, BET1 / Fold change vs veh, BET1 / RFU, CNOT2 / Fold change vs veh, CNOT2 / RFU, ZNF268 / Fold change vs veh, ZNF268 / Fold change vs veh, ZNF507 / RFU, DGCR2 / Fold change vs veh, DGCR2 / RFU, WDSUB1 / Fold change vs veh, WDSUB1 / Fold change vs veh, HSP90B1 /// MIR3652 / RFU, ADSS / Fold change vs veh, ADSS / RFU, GK / Fold change vs veh, GK / RFU, ZNF148 / Fold change vs veh, ZNF148 / RFU, TAF9 / Fold change vs veh, TAF9 / RFU, SLC1A5 / Fold change vs veh, SLC1A5 / RFU, SLMO2 / Fold change vs veh, SLMO2 / RFU, ABCC4 / Fold change vs veh, ABCC4 / RFU, LOC101060439 /// RAP1B / Fold change vs veh, LOC101060439 /// RAP1B / RFU, RFX7 / Fold change vs veh, RFX7 / RFU, GTPBP10 / Fold change vs veh, GTPBP10 / RFU, CNEP1R1 / Fold change vs veh, CNEP1R1 / RFU, BIVM-ERCC5 /// ERCC5 / Fold change vs veh, BIVM-ERCC5 /// ERCC5 / RFU, ILF3 / Fold change vs veh, ILF3 / RFU 11762660_at / Fold change /veh 11762660_at / RFU VCAN (11757783_s_at) / Fold change /veh VCAN (11757783_s_at) / RFU DDX43 (11728927_at) / Fold change /veh DDX43 (11728927_at) / RFU KRT8 (11758188_x_at) / Fold change /veh KRT8 (11758188_x_at) / RFU NKD1 (11759106_at) / Fold change /veh NKD1 (11759106_at) / RFU SRD5A1 (11742802_a_at) / Fold change /veh SRD5A1 (11742802_a_at) / RFU TPSAB1 /// TPSB2 (11721975_s_at) / Fold change /veh TPSAB1 /// TPSB2 (11721975_s_at) / RFU GSTM3 (11746129_a_at) / Fold change /veh GSTM3 (11746129_a_at) / RFU IL23R (11737362_x_at) / Fold change /veh IL23R (11737362_x_at) / RFU TMEM51 (11727254_a_at) / Fold change /veh TMEM51 (11727254_a_at) / RFU PIWIL2 (11732686_x_at) / Fold change /veh PIWIL2 (11732686_x_at) / RFU ORM1 (11744905_x_at) / Fold change /veh ORM1 (11744905_x_at) / RFU CCDC152 (11743942_at) / Fold change /veh CCDC152 (11743942_at) / RFU ECM1 (11717891_a_at) / Fold change /veh ECM1 (11717891_a_at) / RFU IL23R (11748794_a_at) / Fold change /veh IL23R (11748794_a_at) / RFU TNFAIP8L3 (11732012_x_at) / Fold change /veh TNFAIP8L3 (11732012_x_at) / RFU MBOAT4 (11741988_at) / Fold change /veh MBOAT4 (11741988_at) / RFU 11764193_at / Fold change /veh 11764193_at / RFU TMEM53 (11763286_at) / Fold change /veh TMEM53 (11763286_at) / RFU MAGEB2 (11727129_at) / Fold change /veh MAGEB2 (11727129_at) / RFU TMEM200A (11744735_a_at) / Fold change /veh TMEM200A (11744735_a_at) / RFU CCDC152 (11751479_a_at) / Fold change /veh CCDC152 (11751479_a_at) / RFU FAM211A (11726209_a_at) / Fold change /veh FAM211A (11726209_a_at) / RFU RGS16 (11746705_a_at) / Fold change /veh RGS16 (11746705_a_at) / RFU VCAN (11755009_s_at) / Fold change /veh VCAN (11755009_s_at) / RFU RHOB (11743442_s_at) / Fold change /veh RHOB (11743442_s_at) / RFU RGS16 (11720943_a_at) / Fold change /veh RGS16 (11720943_a_at) / RFU RGS16 (11720944_at) / Fold change /veh RGS16 (11720944_at) / RFU, VPS4B / Fold change vs veh, VPS4B / RFU, CREB1 / Fold change vs veh, CREB1 / RFU, DNAJC13 / Fold change vs veh, DNAJC13 / RFU, GNAQ / Fold change vs veh, GNAQ / RFU, CDK5R1 / Fold change vs veh, CDK5R1 / RFU, ZRANB3 / Fold change vs veh, ZRANB3 / RFU, CUL4A / Fold change vs veh, CUL4A / RFU, CCNY / Fold change vs veh, CCNY / RFU, UFL1 / Fold change vs veh, UFL1 / RFU, COG3 / Fold change vs veh, COG3 / RFU, DIAPH2 / Fold change vs veh, DIAPH2 / RFU, SKA2 / Fold change vs veh, SKA2 / RFU, AFF3 / Fold change vs veh, AFF3 / RFU, LMF1 / Fold change vs veh, LMF1 / RFU, IPO11 / Fold change vs veh, IPO11 / RFU, DFFB / Fold change vs veh, DFFB / RFU, FOXP1 / Fold change vs veh, FOXP1 / RFU, CARD8 / Fold change vs veh, CARD8 / RFU, STRN3 / Fold change vs veh, STRN3 / RFU, ADK / Fold change vs veh, ADK / RFU, RASSF2 / Fold change vs veh, RASSF2 / RFU, WIPF1 / Fold change vs veh, WIPF1 / RFU, LARP1B / Fold change vs veh, LARP1B / RFU, RASA1 / Fold change vs veh, RASA1 / RFU, RB1 / Fold change vs veh, RB1 / RFU, PPFIA1 / Fold change vs veh, PPFIA1 / RFU, MAT2A / Fold change vs veh, MAT2A / RFU, CCT5 / Fold change vs veh, CCT5 / RFU, WDR92 / Fold change vs veh, WDR92 / RFU, CUX1 / Fold change vs veh, CUX1 / RFU, TTC7A / Fold change vs veh, TTC7A / RFU, TMEM135 / Fold change vs veh, TMEM135 / RFU, DEPTOR / Fold change vs veh, DEPTOR / RFU, CPM / Fold change vs veh, CPM / RFU, DNAJB6 / Fold change vs veh, DNAJB6 / RFU, CACNA2D3 / Fold change vs veh, CACNA2D3 / RFU, DTX4 / Fold change vs veh, DTX4 / RFU, TFCP2 / Fold change vs veh, TFCP2 / RFU, GMCL1 /// GMCL1P1 / Fold change vs veh, GMCL1 /// GMCL1P1 / RFU, AEBP2 / Fold change vs veh, AEBP2 / RFU, SNHG1 /// SNORD22 /// SNORD25 /// SNORD26 /// SNORD27 /// SNORD28 /// SNORD29 /// SNORD31 / Fold change vs veh, SNHG1 /// SNORD22 /// SNORD25 /// SNORD26 /// SNORD27 /// SNORD28 /// SNORD29 /// SNORD31 / Fold change (Aza/veh), C12orf56 (ProbeSet 11735607_a_at) / Fold change (ACY-1035/veh), C12orf56 (ProbeSet 11735607_a_at) / Fold change (Aza/veh), FGFR1OP (ProbeSet 11751329_s_at) / Fold change (ACY-1035/veh), FGFR1OP (ProbeSet 11751329_s_at) / Fold change (Aza/veh), VPS36 (ProbeSet 11739960_a_at) / Fold change (ACY-1035/veh), VPS36 (ProbeSet 11739960_a_at) / RFU SYPL1 (11715823_x_at) / Fold change /veh SYPL1 (11715823_x_at) / RFU IGFBP7 (11715501_s_at) / Fold change /veh IGFBP7 (11715501_s_at) / RFU REEP3 (11722064_at) / Fold change /veh REEP3 (11722064_at) / RFU IGLL1 (11728026_x_at) / Fold change /veh IGLL1 (11728026_x_at): dose or concentration left out as unconfirmed
Conditions: ProbeSet 11743929_at; LIST B

Nc1ncn([C@@H]2O[C@H](CO)[C@@H](O)[C@H]2O)c(=O)n1 [azacitidine]
RFU, UHRF1BP1L: 257.64 RFU
